In patent US20260027116A1, “Methods of Treating Chronic Graft-Versus-Host Disease Following Allogeneic Hematopoietic Stem Cell Transplantation” (Kadmon Corporation, LLC, priority 2022, published 2026):
Read-outs that look alike come from different tables or passages of the source.

Test system: patients with chronic GVHD
Settings: for Abdominal pain / Arthralgia / Cough / Decreased appetite / Diarrhea / Dysphagia / Dyspnea / Edema / Headache / Hemorrhage / Hypertension / Infection (pathogen not specified) / Muscle spasm / Musculoskeletal pain / Nasal congestion / Pruritus / Pyrexia / Rash / Viral infection / Asthenia / Nausea: 200 mg once daily (N = 83); for Asthenia: includes fatigue, malaise; for Nausea: includes nausea, vomiting
[1] = Grade 2-4 Max Post, 200 mg once daily
[2] = Grade 3-4 Max Post, 200 mg once daily

CC(C)NC(=O)COc1cccc(-c2nc(Nc3ccc4[nH]ncc4c3)c3ccccc3n2)c1 [Belumosudil, 2-{3-[4-(1H-indazol-5-ylamino)-2-quinazolinyl]phenoxy}-N-(propan-2-yl) acetamide]
adverse reactions leading to dose interruption (200 mg once daily, N=83): 29%
dose interruption due to asthenia, dyspnea, hemorrhage, hypotension, liver function test abnormal, nausea, pyrexia, edema, renal failure (each) (200 mg once daily, N=83): 2%
dose interruption due to diarrhea (200 mg once daily, N=83): 4%
dose interruption due to infections (200 mg once daily, N=83): 11%
patients with fatal adverse reaction (200 mg once daily, N=83): one
permanent discontinuation due to adverse reactions (200 mg once daily, N=83): 18%
permanent discontinuation due to nausea (200 mg once daily, N=83): 4%
Abdominal pain (All Grades): 22%
Arthralgia (All Grades): 15%
Cough (All Grades): 30%
Decreased appetite (All Grades): 17%
Diarrhea (All Grades): 35%
Dysphagia (All Grades): 16%
Dyspnea (All Grades): 33%
Edema (All Grades): 27%
Headache (All Grades): 21%
Hemorrhage (All Grades): 23%
Hypertension (All Grades): 21%
Infection (pathogen not specified) (All Grades): 53%
Muscle spasm (All Grades): 17%
Musculoskeletal pain (All Grades): 22%
Nasal congestion (All Grades): 12%
Pruritus (All Grades): 11%
Pyrexia (All Grades): 18%
Rash (All Grades): 12%
Viral infection (All Grades): 19%
Asthenia (All Grades): 46%
Nausea (All Grades): 42%
Alanine Aminotransferase Increased [1]: 7%
Alkaline Phosphatase Increased [1]: 9%
Calcium Decreased [1]: 12%
Creatinine Increased [1]: 4%
Gamma Glutamyl Transferase Increased [1]: 21%
Hemoglobin Decreased [1]: 11%
Lymphocytes Decreased [1]: 29%
Neutrophil Count Decreased [1]: 8%
Phosphate Decreased [1]: 28%
Platelets Decreased [1]: 10%
Potassium Increased [1]: 7%
Alanine Aminotransferase Increased [2]: 2%
Alkaline Phosphatase Increased [2]: 0%
Calcium Decreased [2]: 1%
Creatinine Increased [2]: 0%
Gamma Glutamyl Transferase Increased [2]: 11%
Hemoglobin Decreased [2]: 1%
Lymphocytes Decreased [2]: 13%
Neutrophil Count Decreased [2]: 4%
Phosphate Decreased [2]: 7%
Platelets Decreased [2]: 5%
Potassium Increased [2]: 1%
Abdominal pain (Grades 3-4): 1%
Arthralgia (Grades 3-4): 2%
Cough (Grades 3-4): 0%
Decreased appetite (Grades 3-4): 1%
Diarrhea (Grades 3-4): 5%
Dysphagia (Grades 3-4): 0%
Dyspnea (Grades 3-4): 5%
Edema (Grades 3-4): 1%
Headache (Grades 3-4): 0%
Hemorrhage (Grades 3-4): 5%
Hypertension (Grades 3-4): 7%
Infection (pathogen not specified) (Grades 3-4): 16%
Muscle spasm (Grades 3-4): 0%
Musculoskeletal pain (Grades 3-4): 4%
Nasal congestion (Grades 3-4): 0%
Pruritus (Grades 3-4): 0%
Pyrexia (Grades 3-4): 1%
Rash (Grades 3-4): 0%
Viral infection (Grades 3-4): 4%
Asthenia (Grades 3-4): 4%
Nausea (Grades 3-4): 4%
